Entries after “also recorded” stand apart in the source; their conditions may differ. Where a SMILES comes first, the peptide text is derived from it. Bridges are numbered along the chain shown (N, C = ends). Where no end group is shown, it is not given here. [ ]: non-standard residue; d: D form. Cha = N[C@@H](CC1CCCCC1)C(=O)O

The source of these data is patent US5434133A, “CNP analog peptides and their use” (Suntory Limited, priority 1991, dated 1995).

The test system of assay [1] is cultured vascular smooth muscle cells (VSMC) derived from the aortas of rats. The assay is described as follows: Cell growth suppressing activity: [3H] thymidine uptake (DNA synthesis inhibition) in VSMC. Type of assay: cell-based, rat. To be noted: for % Inhibition of 3H-thymidine uptake: 0.1 μm of each peptide, BSMC line stimulated with PDGF (20 ng/ml). On the procedure: 1-2: Measurement of Cell Growth Suppressing Activity
Cell growth suppressing activity was evaluated in accordance with the method of Kariya et al. (Atherosclerosis, 80, 143-147, 1990) by measuring the uptake of [^3 H] thymidine into cells as an indicator of percent DNA synthesis inhibition using the above-identified VSMC. Cells tuned to a stationary phase were incubated at 37° C. for 14 h with each sample added in the presence of 1% serum or 20 ng/ml of PDGF (platelet derived growth factor). Then, following the addition of 37 kBq/ml of [^3 H] thymidine, the incubation was continued for another 4 h and the radioactivity of [^3 H] thymidine incorporated into the cells was measured. The values of measurement were such that the uptake of [^3 H] thymidine for the case where only 1% serum or PDGF was added in the absence of peptide was taken as 100%, with the percent suppression due to the peptide addition being accordingly calculated.

For assay [2] the test system is unchanged. As to the kind of experiment: cGMP producing activity in cultured VSMC (cGMP radioimmunoassay). Format: cell-based, rat. To be noted: for cGMP producing activity (% increase for 1 μm): specific activity compared to 1 μm α-hANP (2000 fmol/400000 cells) = 100, peptide at 1 μm; for cGMP producing activity (in words): comparison with CNP-22 or α-hANP. On the procedure: 1-1: Measurement of CGMP Producing Activity
The above-mentioned activity of compounds synthesized according to the present invention was measured by the methods of Hirata et al. (Biochem. Biophys. Res. Commun., 128, 538, 1985) and Scarborough et al. (J. Biol. Chem., 261, 12960, 1986). The cells used were cultured vascular smooth muscle cells (hereunder abbreviated as VSMC) derived from the aortas of rats. From 10^-9 to 10^-6 M of α-hANP or a 20 peptide of interest was incubated together with VSMC and the amount cGMP produced was measured by cGMP radioimmunoassay. Percent maximum reactivity for each peptide, with the value of maximum reactivity for α-hANP being taken as 100%, was used as an indicator of activity.

For the compound “hCNP-53: human CNP-53, CNP-22 with 31 amino acid residues attached to the N-terminus (DLRVDTKSRAAWARLLQEHPNARKYKGANKKGLSKGCFGLKLDRIGSMSGLGC; disulfide 37-53 (inferred); ends not checked; UniProt P23582 74-126, looked up) [reference compound]”, the “% Inhibition of 3H-thymidine uptake” value in assay [1] amounted to 71%. Also, the “suppression of DNA synthesis of rat VSMC (in words)” value in assay [1] (FIGS. 2, 3 and 4) is “suppress the DNA synthesis of rat VSMC in a dose-dependent manner”. Further, the “intensity of DNA synthesis / cell growth suppressing action relative to α-hANP” value in assay [1] (rat VSMC, compared with α-hANP) turned out to be 10 times. In addition, the “cGMP producing activity (% increase for 1 μm)” value in assay [2] came out at 458%.
As for `CC[C@H](C)[C@@H]1NC(=O)[C@H](CCCNC(=N)N)NC(=O)[C@H](CC(=O)O)NC(=O)[C@H](CCSC)NC(=O)[C@H](CCCNC(=N)N)NC(=O)[C@H](CC(C)C)NC(=O)CNC(=O)[C@H](Cc2ccccc2)NC(=O)[C@@H](NC(=O)CNC(=O)[C@H](CCCCN)NC(=O)[C@H](CO)NC(=O)[C@H](CC(C)C)NC(=O)CN)CSSC[C@@H](C(=O)O)NC(=O)CNC(=O)[C@H](CC(C)C)NC(=O)CNC(=O)[C@H](CO)NC(=O)[C@H](CCSC)NC(=O)[C@H](CO)NC(=O)CNC1=O` [Compound 12] (H-GLSKGCFGLRMDRIGSMSGLGC-OH; disulfide 6-22), the “cGMP producing activity (% increase for 1 μm)” value in assay [2] came out at 273%.
In the case of `CC[C@H](C)[C@@H]1NC(=O)[C@H](CCCNC(=N)N)NC(=O)[C@H](CC(=O)O)NC(=O)[C@H](CC(C)C)NC(=O)[C@H](CCCCN)NC(=O)[C@H](CC(C)C)NC(=O)CNC(=O)[C@H](CC2CCCCC2)NC(=O)[C@@H](N)CSSC[C@@H](C(=O)N[C@@H](CC(N)=O)C(=O)N[C@@H](CO)C(=O)N[C@@H](Cc2ccccc2)C(=O)N[C@@H](CCCNC(=N)N)C(=O)N[C@@H](Cc2ccc(O)cc2)C(=O)O)NC(=O)CNC(=O)[C@H](CC(C)C)NC(=O)CNC(=O)[C@H](CO)NC(=O)[C@H](CCC(N)=O)NC(=O)[C@H](C)NC(=O)CNC1=O` [Compound 27] (H-C[Cha]GLKLDRIGAQSGLGCNSFRY-OH; disulfide 1-17), the “cGMP producing activity relative to α-hANP” value in assay [2] (rat VSMC, times as high activity as α-hANP) is 4-6 times. The “cGMP producing activity (% increase for 1 μm)” value in assay [2] is 523%.
For the compound `CC[C@H](C)[C@@H]1NC(=O)[C@H](CCCNC(=N)N)NC(=O)[C@H](CC(=O)O)NC(=O)[C@H](CC(C)C)NC(=O)[C@H](CCCCN)NC(=O)[C@H](CC(C)C)NC(=O)CNC(=O)[C@H](Cc2ccccc2)NC(=O)[C@@H](NC(=O)CNC(=O)[C@H](CCCCN)NC(=O)[C@H](CO)NC(=O)[C@H](CC(C)C)NC(=O)CN)CSSC[C@@H](C(=O)N[C@@H](CC(N)=O)C(=O)N[C@@H](CO)C(=O)N[C@@H](Cc2ccccc2)C(=O)N[C@@H](CCCNC(=N)N)C(=O)N[C@@H](Cc2ccc(O)cc2)C(=O)O)NC(=O)CNC(=O)[C@H](CC(C)C)NC(=O)CNC(=O)[C@H](CO)NC(=O)[C@H](CCSC)NC(=O)[C@H](CO)NC(=O)CNC1=O` [Compound 3], the “cGMP producing activity (in words)” value in assay [2] (rat VSMC) is “strong cGMP producing activity at a comparable level to that exhibited by CNP-22”. For the same compound, the “cGMP producing activity (% increase for 1 μm)” value in assay [2] is 667%.
Regarding `CC[C@H](C)[C@@H]1NC(=O)[C@H](CCCNC(=N)N)NC(=O)[C@H](CC(=O)O)NC(=O)[C@H](CCSC)NC(=O)[C@H](CCCNC(=N)N)NC(=O)CNC(=O)CNC(=O)[C@H](Cc2ccccc2)NC(=O)[C@@H](NC(=O)CNC(=O)[C@H](CCCCN)NC(=O)[C@H](CO)NC(=O)[C@H](CC(C)C)NC(=O)CN)CSSC[C@@H](C(=O)N[C@@H](CC(N)=O)C(=O)N[C@@H](CO)C(=O)N[C@@H](Cc2ccccc2)C(=O)N[C@@H](CCCNC(=N)N)C(=O)N[C@@H](Cc2ccc(O)cc2)C(=O)O)NC(=O)[C@H](CCC(=O)O)NC(=O)[C@H](CC(C)C)NC(=O)[C@H](CCC(=O)O)NC(=O)[C@H](CO)NC(=O)[C@H](CCC(N)=O)NC(=O)[C@H](C)NC(=O)CNC1=O` [Compound 2, H-Gly-Leu-Ser-Lys-Gly-Cys-Phe-Gly-Gly-Arg-Met-Asp-Arg-Ile-Gly-Ala-Gln-Ser- Glu-Leu-Glu-Cys-Asn-Ser-Phe-Arg-Tyr-OH] (H-GLSKGCFGGRMDRIGAQSELECNSFRY-OH; disulfide 6-22), in assay [1], the “% Inhibition of 3H-thymidine uptake” value was 38%. The “cGMP producing activity (in words)” value in assay [2] (rat VSMC) was “only a weak cGMP producing activity at a level comparable to α-hANP”. For the same compound, the “cGMP producing activity (% increase for 1 μm)” value in assay [2] was 147%.
Take GLSKGCpC1FGLKLDRIGSMSGLGC [Compound 16]: the “cGMP producing activity (in words)” value in assay [2] (rat VSMC) was “stronger activity than CNP-22”. In assay [2], the “cGMP producing activity (% increase for 1 μm)” value is recorded as 688%.
Take `CC[C@H](C)[C@@H]1NC(=O)[C@H](CCCNC(=N)N)NC(=O)[C@H](CC(=O)O)NC(=O)[C@H](CCSC)NC(=O)[C@H](CCCNC(=N)N)NC(=O)CNC(=O)CNC(=O)[C@H](Cc2ccccc2)NC(=O)[C@@H](NC(=O)[C@H](CO)NC(=O)[C@H](CO)NC(=O)[C@H](CCCNC(=N)N)NC(=O)[C@H](CCCNC(=N)N)NC(=O)[C@H](CC(C)C)NC(=O)[C@@H](N)CO)CSSC[C@@H](C(=O)O)NC(=O)CNC(=O)[C@H](CC(C)C)NC(=O)CNC(=O)[C@H](CO)NC(=O)[C@H](CCC(N)=O)NC(=O)[C@H](C)NC(=O)CNC1=O` [Compound 1]: the “cGMP producing activity (in words)” value in assay [2] (rat VSMC) is reported as “only a weak cGMP producing activity at a level comparable to α-hANP”. The “cGMP producing activity (% increase for 1 μm)” value in assay [2] was 62%.
With `CC[C@H](C)[C@@H]1NC(=O)[C@H](CCCNC(=N)N)NC(=O)[C@H](CC(=O)O)NC(=O)[C@H](CC(C)C)NC(=O)[C@H](CCCNC(=N)N)NC(=O)CNC(=O)CNC(=O)[C@H](Cc2ccccc2)NC(=O)[C@@H](NC(=O)CNC(=O)[C@H](CCCCN)NC(=O)[C@H](CO)NC(=O)[C@H](CC(C)C)NC(=O)CN)CSSC[C@@H](C(=O)O)NC(=O)CNC(=O)[C@H](CC(C)C)NC(=O)CNC(=O)[C@H](CO)NC(=O)[C@H](CCSC)NC(=O)[C@H](CO)NC(=O)CNC1=O` [Compound 13] (H-GLSKGCFGGRLDRIGSMSGLGC-OH; disulfide 6-22), in assay [2], the “cGMP producing activity (% increase for 1 μm)” value was determined as 58%.
On the same count and under the same terms, with “pCNP-53: porcine CNP-53, CNP-22 with 31 amino acid residues attached to the N-terminus (DLRVDTKSRAAWARLLHEHPNARKYKGGNKKGLSKGCFGLKLDRIGSMSGLGC; disulfide 37-53 (inferred); ends not checked; UniProt P18104 74-126, looked up) [reference compound]” the figure was 524%.
Take `CC[C@H](C)[C@@H]1NC(=O)[C@H](CCCNC(=N)N)NC(=O)[C@H](CC(=O)O)NC(=O)[C@H](CCSC)NC(=O)[C@H](CCCCN)NC(=O)CNC(=O)CNC(=O)[C@H](Cc2ccccc2)NC(=O)[C@@H](NC(=O)CNC(=O)[C@H](CCCCN)NC(=O)[C@H](CO)NC(=O)[C@H](CC(C)C)NC(=O)CN)CSSC[C@@H](C(=O)O)NC(=O)CNC(=O)[C@H](CC(C)C)NC(=O)CNC(=O)[C@H](CO)NC(=O)[C@H](CCSC)NC(=O)[C@H](CO)NC(=O)CNC1=O` [Compound 11] (H-GLSKGCFGGKMDRIGSMSGLGC-OH; disulfide 6-22): the “cGMP producing activity (in words)” value in assay [2] (rat VSMC) was “particularly marked; also recorded: lower in cGMP producing activity than the other one- and two-residue substituted derivatives”. In addition, in assay [2], the “cGMP producing activity (% increase for 1 μm)” value came to 71%.
`CC[C@H](C)[C@@H]1NC(=O)[C@H](CCCNC(=N)N)NC(=O)[C@H](CC(=O)O)NC(=O)[C@H](CC(C)C)NC(=O)[C@H](CCCCN)NC(=O)[C@H](CC(C)C)NC(=O)CNC(=O)[C@H](Cc2ccccc2)NC(=O)[C@@H](NC(=O)[C@H](CO)NC(=O)[C@H](CO)NC(=O)[C@H](CCCNC(=N)N)NC(=O)[C@H](CCCNC(=N)N)NC(=O)[C@H](CC(C)C)NC(=O)[C@@H](N)CO)CSSC[C@@H](C(=O)O)NC(=O)CNC(=O)[C@H](CC(C)C)NC(=O)CNC(=O)[C@H](CO)NC(=O)[C@H](CCSC)NC(=O)[C@H](CO)NC(=O)CNC1=O` [Compound 4] (H-SLRRSSCFGLKLDRIGSMSGLGC-OH; disulfide 7-23): in assay [2] (rat VSMC), the “cGMP producing activity (in words)” value is given as “strong cGMP producing activity at a comparable level to that exhibited by CNP-22”. Besides, the “cGMP producing activity (% increase for 1 μm)” value in assay [2] turned out to be 663%.
For `CC[C@H](C)[C@H](NC(=O)[C@H](CCCNC(=N)N)NC(=O)[C@H](CC(=O)O)NC(=O)[C@H](CC(C)C)NC(=O)[C@H](CCCCN)NC(=O)[C@H](CC(C)C)NC(=O)CNC(=O)[C@H](Cc1ccccc1)NC(=O)[C@H](CSC)NC(=O)CNC(=O)[C@H](CCCCN)NC(=O)[C@H](CO)NC(=O)[C@H](CC(C)C)NC(=O)CN)C(=O)NCC(=O)N[C@@H](CO)C(=O)N[C@@H](CCSC)C(=O)N[C@@H](CO)C(=O)NCC(=O)N[C@@H](CC(C)C)C(=O)NCC(=O)N[C@@H](CSC)C(=O)O` [Compound 19, H-Gly-Leu-Ser-Lys-Gly-Cys(Me)-Phe-Gly-Leu-Lys-Leu-Asp-Arg-Ile-Gly-Ser-Met- Ser-Gly-Leu-Gly-Cys(Me)-OH], in assay [2] (rat VSMC), the “cGMP producing activity (in words)” value is recorded as “hardly reduced the cGMP producing activity”. In assay [2], the “cGMP producing activity (% increase for 1 μm)” value was 38%.
